Data reported in paper PMC6300691, “Enhancement of Heat Stability and Kinetic Parameters of the Maize Endosperm ADP-Glucose Pyrophosphorylase by Mutagenesis of Amino Acids in the Small Subunit With High B Factors” (Frontiers in Plant Science, 2018).
Positions count from the first letter of the chain named.

Tests used:
Format in all cases: biochemical
D242H = target: T1, D242H (Zea mays, UniProt P55241+Q947C0, D242H); assay: Initial-rate assay (PPi formation coupled to NADH oxidation) with varied ATP (0.05-3.0 mM) at 2.0 mM G-1-P, 2.5 mM 3-PGA, 15 mM MgCl2, 50 mM HEPES pH 7.4, hyperbolic fit.; conditions: read-out: KM ATP
T1 construct: BT2 variant with wild type SH2, E. coli, purified
Source text: (§1) All saturation plots were hyperbolic. No cooperative effects were seen.

[1] = target: T2, E123G, R331K, K402R (BT2-BF) (Zea mays, UniProt P55241+Q947C0, E123G/R331K/K402R); assay: as above; conditions: read-out: KM ATP
T2 construct: BT2-BF with wild type SH2 (SH2-WT/BT2-BF), E. coli, purified
T2 sequence (Q947C0 1-475 E123G/R331K/K402R): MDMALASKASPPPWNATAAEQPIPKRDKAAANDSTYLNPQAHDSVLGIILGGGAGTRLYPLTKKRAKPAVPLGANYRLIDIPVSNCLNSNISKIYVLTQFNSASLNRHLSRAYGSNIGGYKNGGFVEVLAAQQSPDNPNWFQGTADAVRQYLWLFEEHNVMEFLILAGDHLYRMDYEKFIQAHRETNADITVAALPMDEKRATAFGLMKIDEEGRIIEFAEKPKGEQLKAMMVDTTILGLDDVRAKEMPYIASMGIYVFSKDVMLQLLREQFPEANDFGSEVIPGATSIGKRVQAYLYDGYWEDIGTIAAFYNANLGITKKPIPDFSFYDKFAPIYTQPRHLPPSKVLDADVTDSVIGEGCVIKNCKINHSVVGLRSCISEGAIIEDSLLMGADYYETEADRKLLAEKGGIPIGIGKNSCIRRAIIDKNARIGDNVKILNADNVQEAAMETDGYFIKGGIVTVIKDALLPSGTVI
T2 sequence (P55241 46-516): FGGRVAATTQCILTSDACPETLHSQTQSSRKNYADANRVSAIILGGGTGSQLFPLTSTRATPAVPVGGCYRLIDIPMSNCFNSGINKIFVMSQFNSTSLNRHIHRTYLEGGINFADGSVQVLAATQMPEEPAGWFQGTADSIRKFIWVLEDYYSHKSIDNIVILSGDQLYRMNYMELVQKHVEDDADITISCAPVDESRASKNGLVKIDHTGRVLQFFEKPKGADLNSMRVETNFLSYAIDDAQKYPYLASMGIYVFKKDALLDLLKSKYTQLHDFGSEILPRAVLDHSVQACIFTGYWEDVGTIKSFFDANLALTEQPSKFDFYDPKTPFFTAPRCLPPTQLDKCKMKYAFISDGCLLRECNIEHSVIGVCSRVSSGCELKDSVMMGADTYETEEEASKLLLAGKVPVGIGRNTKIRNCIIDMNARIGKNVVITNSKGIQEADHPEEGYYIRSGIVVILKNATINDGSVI
Source text: as §1

L404E = target: T3, L404E (Zea mays, UniProt P55241+Q947C0, L404E); assay: as above; conditions: read-out: KM ATP
T3 construct: BT2 variant with wild type SH2, E. coli, purified
Source text: as §1

K403E = target: T4, K403E (Zea mays, UniProt P55241+Q947C0, K403E); assay: as above; conditions: read-out: KM ATP
T4 construct: BT2 variant with wild type SH2, E. coli, purified
Source text: as §1

[2] = target: T5, E123G, R331K, K402R, L404H (Zea mays, UniProt P55241+Q947C0, E123G/R331K/K402R/L404H); assay: as above; conditions: read-out: KM ATP
T5 construct: BT2 quadruple variant with wild type SH2, E. coli, purified
Source text: as §1

L404K = target: T6, L404K (Zea mays, UniProt P55241+Q947C0, L404K); assay: as above; conditions: read-out: KM ATP
T6 construct: BT2 variant with wild type SH2, E. coli, purified
Source text: as §1

E123G, R331K = target: T7, E123G, R331K (Zea mays, UniProt P55241+Q947C0, E123G/R331K); assay: as above; conditions: read-out: KM ATP
T7 construct: BT2 variant with wild type SH2, E. coli, purified
Source text: as §1

E123Q = target: T8, E123Q (Zea mays, UniProt P55241+Q947C0, E123Q); assay: as above; conditions: read-out: KM ATP
T8 construct: BT2 variant with wild type SH2, E. coli, purified
Source text: as §1

R331P = target: T9, R331P (Zea mays, UniProt P55241+Q947C0, R331P); assay: as above; conditions: read-out: KM ATP
T9 construct: BT2 variant with wild type SH2, E. coli, purified
Source text: as §1

E123G, R331K, L404H = target: T10, E123G, R331K, L404H (Zea mays, UniProt P55241+Q947C0, E123G/R331K/L404H); assay: as above; conditions: read-out: KM ATP
T10 construct: BT2 variant with wild type SH2, E. coli, purified
Source text: as §1

SH2-E = target: T11, SH2-E (Zea mays, UniProt P55241+Q947C0, N131R/T142F/A160T/Q261S/A396S/V416I/C424V/S444A); assay: Pi inhibition study without 3-PGA, ATP varied (0.1-3 mM) at fixed Pi levels (10-30 mM) and sub-saturating G-1-P (1 mM), fit to mixed-type inhibition equations.; conditions: read-out: Km (mM), varied substrate ATP, Pi inhibition in the absence of 3-PGA
T11 construct: SH2-E with wild type BT2 (SH2-E/BT2-WT), E. coli, purified
T11 sequence (Q947C0 1-475): T2 sequence (Q947C0 1-475 E123G/R331K/K402R) with G123E, K331R, R402K
T11 sequence (P55241 46-516 N131R/T142F/A160T/Q261S/A396S/V416I/C424V/S444A): T2 sequence (P55241 46-516) with N86R, T97F, A115T, Q216S, A351S, V371I, C379V, S399A
Protocol: Pi inhibition was carried out in both the presence and absence of 3-PGA with the Pi and substrate concentrations listed below.
Pi inhibition patterns in the presence and absence of 3PGA were also determined. Pi inhibition patterns were obtained by varying one substrate at several fixed concentrations of Pi, while holding the co-substrate at constant sub-saturating levels.

T6 sequence (Q947C0 1-475 L404K, one chain of several): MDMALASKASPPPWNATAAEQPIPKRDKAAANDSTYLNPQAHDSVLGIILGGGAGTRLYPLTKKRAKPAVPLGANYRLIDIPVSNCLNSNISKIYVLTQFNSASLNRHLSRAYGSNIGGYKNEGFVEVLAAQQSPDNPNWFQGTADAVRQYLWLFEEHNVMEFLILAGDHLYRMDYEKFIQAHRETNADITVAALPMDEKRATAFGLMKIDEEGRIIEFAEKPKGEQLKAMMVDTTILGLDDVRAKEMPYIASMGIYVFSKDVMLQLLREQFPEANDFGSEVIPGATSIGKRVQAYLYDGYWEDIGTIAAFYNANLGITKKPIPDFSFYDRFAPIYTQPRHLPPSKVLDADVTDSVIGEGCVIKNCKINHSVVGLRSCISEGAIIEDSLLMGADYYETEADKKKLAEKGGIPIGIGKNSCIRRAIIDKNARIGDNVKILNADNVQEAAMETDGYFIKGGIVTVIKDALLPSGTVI
T1 sequence (Q947C0 1-475 D242H, one chain of several): as the sequence (Q947C0 1-475 L404K, one chain of several) above, with D242H, K404L counted along it
T9 sequence (Q947C0 1-475 R331P, one chain of several): as the sequence (Q947C0 1-475 L404K, one chain of several) above, with R331P, K404L counted along it
T8 sequence (Q947C0 1-475 E123Q, one chain of several): as the sequence (Q947C0 1-475 L404K, one chain of several) above, with E123Q, K404L counted along it
T4 sequence (Q947C0 1-475 K403E, one chain of several): as the sequence (Q947C0 1-475 L404K, one chain of several) above, with K403E, K404L counted along it
T3 sequence (Q947C0 1-475 L404E, one chain of several): as the sequence (Q947C0 1-475 L404K, one chain of several) above, with K404E counted along it
T5 sequence (Q947C0 1-475 E123G/R331K/K402R/L404H, one chain of several): as the sequence (Q947C0 1-475 L404K, one chain of several) above, with E123G, R331K, K402R, K404H counted along it
T10 sequence (Q947C0 1-475 E123G/R331K/L404H, one chain of several): as the sequence (Q947C0 1-475 L404K, one chain of several) above, with E123G, R331K, K404H counted along it
T7 sequence (Q947C0 1-475 E123G/R331K, one chain of several): as the sequence (Q947C0 1-475 L404K, one chain of several) above, with E123G, R331K, K404L counted along it

Q: How did the Km (D242H) turn out when `Nc1ncnc2c1ncn2[C@@H]1O[C@H](COP(=O)(O)OP(=O)(O)OP(=O)(O)O)[C@@H](O)[C@H]1O` [ATP, adenosine 5'-triphosphate] was run?
A: 110 ± 16 µM

Q: And the Km [1]?
A: 60 ± 7 µM

Q: What about the Km (L404E) of the same compound?
A: 135 ± 47 µM

Q: What about the Km (K403E) of the same compound?
A: 69 ± 12 µM

Q: What about the Km [2] of the same compound?
A: 91 ± 8 µM

Q: What about the Km (L404K) of the same compound?
A: 43 ± 9 µM

Q: What about the Km (E123G, R331K) of the same compound?
A: 80 ± 5 µM

Q: What about the Km (E123Q) of the same compound?
A: 52 ± 6 µM

Q: And the Km (R331P)?
A: 97 ± 15 µM

Q: And the Km (E123G, R331K, L404H)?
A: 67 ± 10 µM

Q: And the Km (SH2-E)?
A: 0.97 ± 0.081 mM
